In patent US20070166547A1, “Use of a layer consisting of hydrophobic linear, or two-dimensional polycyclic aromatics as a barrier layer or an encapsulation and electric components constructed with a layer of this type and comprising organic polymers” (priority 2003, published 2007):

How the values were obtained:
[1] = tested on: embyronic fibroblasts of mouse NIH-3T3; experiment: Endocellular pHi of fibroblasts by microspectrofluorimetry (FDA, BCECF-AM); type: cell-based; conditions: for rise of pHi: fibroblasts in an attached spread state; for increase of pHi: 20 minutes
Experimental: The effect of the compounds according to the invention on the endocellular pH, embyronic fibroblasts of mouse NIH-3T3 supplied by the All-Russian Collection of Cellular Cultures of the Institute of Cytology of the Russian Academy of Sciences St. Petersburg was investigated. The cells were grown in the DMEM (Sigma) medium containing 2.2 g/l of sodium bicarbonate with addition of 80.0 mkg/ml of gentamicin and 10.0% embryonal veal serum at a temperature of 37° C. in an atmosphere containing 5.0% of carbon dioxide. For these experiments use was also made of a medium buffer with 5.0 mM of HEPES and 15.0 mM of sodium bicarbonate without serum or with addition of 5.0% serum. The cells were calculated with the help of a hemocytometer. A share of the dead cells was determined by colouring trypan blue.
The measurements of the endocellular pHi were carried out with the help of colorants FDA (Sigma) and BCECF-AM (Calbiochem) on a microspectrofluorimeter by a standard technique (Koshevoy Yu. V., Akatov V. S., Grobova M. E. Microspectrofluorimeter for measuring endocellular pH (micro pH)”. Devices and equipment for studies in the field of physical-and-chemical biology and biotechnology. Pushchino, 1990. P. 8-14).
The cells at a temperature of 37° C. were colored within 5 minutes with 5.0 mkM PDA that before the colouring was prepared from a 10.0 mM solution in acetone by dilution for 30 minutes in a phosphatic buffer to 0.1 mM or 2.0 mkM 1.0 mM solution BCECF-AM in DMSO.
The two-wave method of determining pHi was used based on the ratio intensities of fluorescence of the cells on two wavelengths (Akatov V. S. et all), “Endocellular pH and substrate dependence of proliferation of fibroblasts of Chinese hamster, Cytology, 1991, 33 (7), p. 86-94). The fluorescence was excited by light at λ=490 nm, the emission was recorded simultaneously with two photomultipliers on wavelengths λ=535 nm and λ=570 nm. The K-ratio of the fluorescence on two wavelengths was determined with a deduction of the background fluorescence of the medium near the investigated cells for 40-60 individual cells, which are then averaged taking into account the measurement error. A thermostatically controlled table was used that allowed measurements to be conducted at a temperature of 37° C. An account was taken for the photodynamic damage of the pigmented cells during-long-time continuous illumination by excited light. The readings were taken from a section of the preparation exposed to light for not more than 5 minutes.
The calibration curves for determining the absolute pHi values by magnitude K were constructed using the Thomas technique (Thomas J. A., Bushbaum R. N., Zimniak A. w Racker E. “Intracellular pH measurements in Ehrlich ascites tumor cells utilizing spectroscopic probe generated in situ”, Biochemistry, 1979, v. 18, p. 2210-2218), for which case the pigmented cells treated for 5-10 minutes with carboxyacidic nigericyn (Calbiochem) at a concentration of 5-10 mkg/ml was placed in a solution with a high content of potassium—130 mM KCl, 1.0 mM MgCl2, 20.0 mM of HEPES) and with pH values from 6.2 to 7.6. The K values were measured in the media with different pH assuming that pHi of the cells equals to the pH of the medium due to the action of nigericyn, which exchanges potassium ions for protons and at a high content of potassium in the medium counterbalances the pH of the medium and cells. Calibration curves were used based on the fluorescence of same medium with addition of 5.0 mkM of fluorescence or BCECF were used to the control the stability of the of the instrument readings.
The correctness of the technique was confirmed in the experiments on measurements of pH values of cells treated with protonofor monencine raising pH of the cells due to replacement of sodium ions by protons, and by determining the dependence of the change of pHi on the change of the pH of the medium. […]

[2] = Polarographic study of electrochemical reduction (electrochemical activity); type: physicochemical; conditions: for number of electrons participating in the reduction: calculated with the Geirovsky-Ilkovich equation; for i, mkA (polarographic wave current) / −E1/2, V (half-wave potential vs SCE): 37° C., forward trace, average for the group; for i, mkA (polarographic wave current): 9·10^−4 M; for half-wave potential more positive on reverse stroke than on forward stroke: reverse stroke vs forward stroke
Experimental: The study was carried out on a general-purpose polarograph PU-1 with a two-coordinate recorder of the “LKD” type using a three-electrode thermostatically controlled polarographic cell and mercury dripping electrode (MDE) with forced separation of the drop and a dropping period of 0.5 second. A platinum wire was used as an auxiliary electrode and a saturated calomel electrode (SCE) was used as a control electrode.
2.0% solutions of sodium chloride having pH 7.0, 7.2, 7.4, 7.6 were used as a background; the pH values of the background solution were corrected by a solution of sodium hydroxide. The polarographic cell was filled with 5.0 ml of the background solution and for 5 minutes was purged with nitrogen for removing the dissolved oxygen. Then 0.5 ml of solution of the studied substance was added to the background solution, and the polarogram was recorded as a polarographic wave. The concentration of the compounds in the polarographic cell was 9·10^−4 M.
The pH was measured on the pH-meter with an accuracy of ±0.05 pH units. The polarographic measurements were carried out at a temperature of 37° C. The recording of polarograms of the investigated materials was effected under conditions of DC current at a scanning rate of the potential 10.0 mV/s with a active scanning stroke from a potential 0 to −0.5 V and sweep retrace from a −0.5 V to 0. The electric-current sensitivity was 5.0 mkA. The scale by the coordinate of the potentials was 50.0 mV/cm. The values of potentials of the half-wave E1/2 of the investigated materials are given with respect to the SCE potential.
The polarogram parameters such as a limiting current ilim and E1/2 were determined by the graphic method. The number of electrons participating in the reaction was calculated on the basis of the analysis of the polarographic wave using the Geirovsky-Ilkovich equation.

[3] = medium with 10.0% blood serum, 0.02 mkg/ml, suspension
[4] = medium with 10.0% blood serum, 0.2 mkg/ml, suspension
[5] = medium with 10.0% blood serum, 2.0 mkg/ml, suspension
[6] = medium with 10.0% blood serum, 20.0 mkg/ml, suspension
[7] = medium without blood serum, 0.02 mkg/ml
[8] = medium without blood serum, 0.2 mkg/ml
[9] = medium without blood serum, 2.0 mkg/ml
[10] = medium without blood serum, 20.0 mkg/ml
[11] = medium without blood serum, 200 mkg/ml
[12] = medium without blood serum, 1000 mkg/ml

O=c1[nH][nH]c(=O)c2ncccc12.[Na] [Compound 7, sodium salt of pyrido[2,3-d]-6H-pyridazine-5,8-dione]
rise of pHi ([1]; 2.0 mkg/ml): 0.10 unit pHi
rise of pHi ([1]; 20.0 mkg/ml): 0.07 unit pHi
increase of pHi [1, 3]: do not initiate a change of pH
increase of pHi [1, 4]: 0.1 unit pH
increase of pHi [1, 5]: 0.12 unit pH
increase of pHi [1, 6]: do not initiate a change of pH
increase of pHi [1, 7]: no effect was found
increase of pHi [1, 8]: no effect was found
increase of pHi [1, 9]: 0.08 unit pHi
increase of pHi [1, 10]: 0.08 unit pHi
increase of pHi [1, 11]: no effect was found
increase of pHi [1, 12]: no effect was found
number of electrons participating in the reduction [2]: 3.72
i, mkA (polarographic wave current) ([2]; pH 7.0): 0.26 ± 0.04 mkA
−E1/2, V (half-wave potential vs SCE) ([2]; pH 7.0): 0.11 ± 0.02 V
i, mkA (polarographic wave current) ([2]; pH 7.2): 0.31 ± 0.02 mkA
−E1/2, V (half-wave potential vs SCE) ([2]; pH 7.2): 0.11 ± 0.03 V
i, mkA (polarographic wave current) ([2]; pH 7.4): 0.27 ± 0.03 mkA
−E1/2, V (half-wave potential vs SCE) ([2]; pH 7.4): 0.105 ± 0.01 V
i, mkA (polarographic wave current) ([2]; pH 7.6): 0.30 ± 0.01 mkA
−E1/2, V (half-wave potential vs SCE) ([2]; pH 7.6): 0.105 ± 0.02 V
half-wave potential more positive on reverse stroke than on forward stroke [2]: 25.0 mV

O=C([O-])c1ccc2c(=O)[nH][nH]c(=O)c2c1.O=C([O-])c1ccc2c(=O)[nH][nH]c(=O)c2c1.[Na+].[Na+] [Compound 18, disodium salt of 6-carboxy-benzo[d]-3H-pyridazine-1,4-dione]
rise of pHi ([1]; 2.0 mkg/ml): 0.10 unit pHi
rise of pHi ([1]; 20.0 mkg/ml): 0.07 unit pHi
increase of pHi [1, 3]: do not initiate a change of pH
increase of pHi [1, 4]: 0.1 unit pH
increase of pHi [1, 5]: 0.12 unit pH
increase of pHi [1, 6]: do not initiate a change of pH
increase of pHi [1, 7]: no effect was found
increase of pHi [1, 8]: no effect was found
increase of pHi [1, 9]: 0.08 unit pHi
increase of pHi [1, 10]: 0.08 unit pHi
increase of pHi [1, 11]: no effect was found
increase of pHi [1, 12]: no effect was found
number of electrons participating in the reduction [2]: 4.09
i, mkA (polarographic wave current) ([2]; pH 7.0): 0.23 ± 0.03 mkA
−E1/2, V (half-wave potential vs SCE) ([2]; pH 7.0): 0.092 ± 0.02 V
i, mkA (polarographic wave current) ([2]; pH 7.2): 0.30 ± 0.01 mkA
−E1/2, V (half-wave potential vs SCE) ([2]; pH 7.2): 0.09 ± 0.01 V
i, mkA (polarographic wave current) ([2]; pH 7.4): 0.29 ± 0.02 mkA
−E1/2, V (half-wave potential vs SCE) ([2]; pH 7.4): 0.092 ± 0.02 V
i, mkA (polarographic wave current) ([2]; pH 7.6): 0.31 ± 0.02 mkA
−E1/2, V (half-wave potential vs SCE) ([2]; pH 7.6): 0.09 ± 0.01 V
half-wave potential more positive on reverse stroke than on forward stroke [2]: 30.0 mV

O=c1[nH][nH]c(=O)c2ncncc12.[Li] [Compound 35, lithium salt of pyrimido[4,5-d]-6H-pyridazine-5,8-dione]
rise of pHi ([1]; 2.0 mkg/ml): 0.10 unit pHi
rise of pHi ([1]; 20.0 mkg/ml): 0.07 unit pHi
increase of pHi [1, 3]: do not initiate a change of pH
increase of pHi [1, 4]: 0.1 unit pH
increase of pHi [1, 5]: 0.12 unit pH
increase of pHi [1, 6]: do not initiate a change of pH
increase of pHi [1, 7]: no effect was found
increase of pHi [1, 8]: no effect was found
increase of pHi [1, 9]: 0.08 unit pHi
increase of pHi [1, 10]: 0.08 unit pHi
increase of pHi [1, 11]: no effect was found
increase of pHi [1, 12]: no effect was found
number of electrons participating in the reduction [2]: 3.5
i, mkA (polarographic wave current) ([2]; pH 7.0): 0.30 ± 0.05 mkA
−E1/2, V (half-wave potential vs SCE) ([2]; pH 7.0): 0.08 ± 0.02 V
i, mkA (polarographic wave current) ([2]; pH 7.2): 0.26 ± 0.02 mkA
i, mkA (polarographic wave current) ([2]; pH 7.4): 0.30 ± 0.03 mkA
−E1/2, V (half-wave potential vs SCE) ([2]; pH 7.4): 0.085 ± 0.02 V
i, mkA (polarographic wave current) ([2]; pH 7.6): 0.30 ± 0.02 mkA
−E1/2, V (half-wave potential vs SCE) ([2]; pH 7.6): 0.09 ± 0.02 V
half-wave potential more positive on reverse stroke than on forward stroke [2]: 27.0 mV
